Results on 28 compounds are retold here after US10428018B2, “ROR gamma (RORy) modulators” (LEAD PHARMA HOLDING B.V., priority 2015, dated 2019).

In the first assay the target is T1, RORγ (Homo sapiens, UniProt P51449).
T1 construct: expressed in transfected cells; host or cells: 293FT cells (Invitrogen), expression vector pFN26A (Promega)
T1 sequence (P51449 269-508 limits assumed): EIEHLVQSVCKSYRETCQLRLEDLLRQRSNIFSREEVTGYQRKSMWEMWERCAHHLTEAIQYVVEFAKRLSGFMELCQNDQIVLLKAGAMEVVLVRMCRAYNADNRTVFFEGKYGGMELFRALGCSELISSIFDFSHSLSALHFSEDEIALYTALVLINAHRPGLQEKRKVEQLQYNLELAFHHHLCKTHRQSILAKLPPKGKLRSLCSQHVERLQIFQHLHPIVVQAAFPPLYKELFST
Kind of assay: RORγ GAL4 reporter gene assay (luciferase readout, 293FT cells). The class given is cell-based. Particulars: inhibition of RORγ (GAL4-RORγ-LBD) luciferase signal in transfected 293FT cells, overnight incubation; read-out: mean pIC50 (converted). The procedure:
Example inhibitors 1-45 were tested for their ability to inhibit RORγ activity in a RORγ GAL4 reporter gene assay.
The RORγ ligand-binding domain (LBD) was fused to the yeast GAL4 DNA binding domain (DBD) and placed under the control of the human cytomegalovirus (CMV) immediate early promoter, using expression vector pFN26A (Promega) and standard recombinant DNA cloning methods.
To monitor the inhibitory effect of compounds on RORγ, a transcriptional reporter construct was used. The pGL4.35 vector (Promega) contains nine copies of the GAL4 Upstream Activator Sequence (UAS). This sequence drives the transcription of the luciferase reporter gene luc2P in response to binding of a fusion protein containing the GAL4 DNA binding domain, as for example expressed by the GAL4-RORγ-LBD and GAL4-VP16 expression vectors described above.
The day after transfection, cells were plated into 96 well plates, test compound was added and the plates were incubated overnight. Subsequently, the firefly luciferase activity was quantified using luciferase detection reagent and luminescence readout.
1500 μL of this reagent mixture was added to 5 μg of GAL4 fusion protein expression vector and 5 μg of the transcriptional reporter construct, and incubated at RT for 20 minutes.
Subsequently, the cells were washed with Phosphate Buffered Saline (PBS) (Lonza), after which the PBS was removed. To dissociate the cells, 1 ml of TrypLE Express (Invitrogen) was added to the flask, followed by incubation at RT until the cells visually started to detach. Cells were collected in 5 mL of assay medium (DMEM culture medium (Lonza), 10% dialyzed FBS (Invitrogen) and Pen/Strep (Lonza)) to achieve a single cell suspension. 10×10^6 cells were spun down and re-suspended in 10 mL of assay medium.
For compound screening, the cells were harvested (as described above) and counted. […] 80 μL of cell suspension (60,000 cells) was plated per well into a white, flat bottom, tissue culture treated, 96 well screening plates (Greiner).
Subsequently, these solutions were diluted to 5× the final test concentration in two 10-fold-dilution steps in assay medium. The final DMSO concentration of the 5× test compound solution was 1%. 20 μL of the 5× test compound solution was added to each test well of the 96 well plate previously plated with 80 μl cell suspension, resulting in the final test concentration with 0.2% DMSO.
For the luciferase readout, the luciferase reagent (Britelite Plus, Perkin Elmer) was brought to RT. To each test well of the screening plates, 100 μL of 2.5-fold diluted Britelite Plus reagent was added, followed by incubation at RT for 10 minutes. The luciferase luminescence signal was measured using a Wallac Victor Microplate Reader (Perkin Elmer).
Background: A reporter such as luciferase makes a cellular process visible.
With `CCS(=O)(=O)c1ccc(CC(=O)Nc2ccc(C(=O)N(C)c3cc(C)on3)cc2)cc1` [Example 1, 4-{2-[4-(ethanesulfonyl)phenyl]acetamido}-N-methyl-N-(5-methyl-1,2-oxazol-3-yl)benzamide], the IC50 is at most 1000 nM.

`CCN(C(=O)c1ccc(NC(=O)Cc2ccc(S(=O)(=O)CC)cc2)cc1)c1cc(C)nn1C` [Example 2, N-(1,3-dimethyl-1H-pyrazol-5-yl)-4-{2-[4-(ethanesulfonyl)phenyl]acetamido}-N-ethylbenzamide]: the IC50 is at most 100 nM.

`CCN(C(=O)c1ccc(NC(=O)Cc2ccc(S(=O)(=O)CC)cc2)cc1)c1cc(C)no1` [Example 3, 4-{2-[4-(ethanesulfonyl)phenyl]acetamido}-N-ethyl-N-(3-methyl-1,2-oxazol-5-yl)benzamide]: the IC50 was at most 100 nM.

For `CCS(=O)(=O)c1ccc(CC(=O)Nc2ccc(C(=O)N(c3ccccc3)C(C)(C)C3CCCO3)cc2)cc1` (stereo not drawn) [Example 18, 4-{2-[4-(ethanesulfonyl)phenyl]acetamido}-N-[2-(oxolan-2-yl)propan-2-yl]-N-phenylbenzamide], the IC50 is at most 10 nM.

Take `CCS(=O)(=O)c1ccc(CC(=O)Nc2ccc(C(=O)N(C)c3ccccn3)cc2)cc1` [Example 23, 4-{2-[4-(ethanesulfonyl)phenyl]acetamido}-N-methyl-N-(pyridin-2-yl)benzamide]: the IC50 was at most 1000 nM.

For `CCN(C(=O)c1ccc(NC(=O)Cc2ccc(S(=O)(=O)CC)cc2)nc1)c1ccccc1` [Example 24, 6-{2-[4-(ethanesulfonyl)phenyl]acetamido}-N-ethyl-N-phenylpyridine-3-carboxamide], the IC50 was at most 1000 nM.

With `CCCN(Cc1ccccc1)C(=O)c1ccc(NC(=O)Cc2ccc(S(=O)(=O)CC)cc2)cc1` [Example 25, N-benzyl-4-{2-[4-(ethanesulfonyl)phenyl]acetamido}-N-propylbenzamide], the IC50 was at most 100 nM.

For the compound `CCS(=O)(=O)c1ccc(CC(=O)Nc2ccc(C(=O)N(C)Cc3ccccc3)cc2)cc1` [Example 26, N-benzyl-4-{2-[4-(ethanesulfonyl)phenyl]acetamido}-N-methylbenzamide], the IC50 was at most 1000 nM.

`CCCN(CC1CC1)C(=O)c1ccc(NC(=O)Cc2ccc(S(=O)(=O)CC)cc2)cc1` [Example 27, N-(cyclopropylmethyl)-4-{2-[4-(ethanesulfonyl)phenyl]acetamido}-N-propylbenzamide]: the IC50 was at most 1000 nM.

Regarding `CCS(=O)(=O)c1ccc(CC(=O)Nc2ccc(C(=O)N3CCCc4ccccc43)cc2)cc1` [Example 28, 2-[4-(ethanesulfonyl)phenyl]-N-[4-(1,2,3,4-tetrahydroquinoline-1-carbonyl)phenyl]acetamide], the IC50 is at most 100 nM.

With `CCS(=O)(=O)c1ccc(CC(=O)Nc2ccc(C(=O)N3CCCC3c3ccccc3)cc2)cc1` (stereo not drawn) [Example 29, 2-[4-(ethanesulfonyl)phenyl]-N-[4-(2-phenylpyrrolidine-1-carbonyl)phenyl]acetamide], the IC50 was at most 1000 nM.

For the compound `CCS(=O)(=O)c1ccc(CC(=O)Nc2ccc(C(=O)N(C)c3ccccc3)cc2)cc1` [Example 30, 4-{2-[4-(ethanesulfonyl)phenyl]acetamido}-N-methyl-N-phenylbenzamide], the IC50 is at most 100 nM.

As to `CCCN(C(=O)c1ccc(NC(=O)Cc2ccc(S(=O)(=O)CC)cc2)cc1)c1cccnc1` [Example 31, 4-{2-[4-(ethanesulfonyl)phenyl]acetamido}-N-propyl-N-(pyridin-3-yl)benzamide], the IC50 is at most 100 nM.

For `CCN(C(=O)c1ccc(NC(=O)Cc2ccc(S(=O)(=O)CC)cc2)cc1)c1cccnc1` [Example 32, 4-{2-[4-(ethanesulfonyl)phenyl]acetamido}-N-ethyl-N-(pyridin-3-yl)benzamide], the IC50 is at most 1000 nM.

For the compound `CCS(=O)(=O)c1ccc(CC(=O)Nc2ccc(C(=O)N3CCCCC3c3ccccc3)cc2)cc1` (stereo not drawn) [Example 33, 2-[4-(ethanesulfonyl)phenyl]-N-[4-(2-phenylpiperidine-1-carbonyl)phenyl]acetamide], the IC50 is at most 100 nM.

Take `CCN(C(=O)c1ccc(NC(=O)Cc2ccc(S(=O)(=O)CC)cc2)cc1)c1ccccc1` [Example 34, 4-{2-[4-(ethanesulfonyl)phenyl]acetamido}-N-ethyl-N-phenylbenzamide]: the IC50 was at most 10 nM.

As for `CCS(=O)(=O)c1ccc(CC(=O)Nc2ccc(C(=O)N(C3CCC3)C3CCC3)cc2)cc1` [Example 35, N, N-dicyclobutyl-4-{2-[4-(ethanesulfonyl)phenyl]acetamido}benzamide], the IC50 is at most 1000 nM.

On to `CCS(=O)(=O)c1ccc(CC(=O)Nc2ccc(C(=O)N(C)Cc3ccco3)cc2)cc1` [Example 37, 4-{2-[4-(ethanesulfonyl)phenyl]acetamido}-N-(furan-2-ylmethyl)-N-methylbenzamide], for which the IC50 was at most 1000 nM.

As for `CCS(=O)(=O)c1ccc(CC(=O)Nc2ccc(C(=O)N(Cc3ccccc3)Cc3ccccc3)cc2)cc1` [Example 38, N,N-dibenzyl-4-{2-[4-(ethanesulfonyl)phenyl]acetamido}benzamide], the IC50 was at most 100 nM.

With `CCS(=O)(=O)c1ccc(CC(=O)Nc2ccc(C(=O)N(c3ccccn3)C3CC3)cc2)cc1` [Example 40, N-cyclopropyl-4-{2-[4-(ethanesulfonyl)phenyl]acetamido}-N-(pyridin-2-yl)benzamide], the IC50 was at most 1000 nM.

In the case of `CCS(=O)(=O)c1ccc(CC(=O)Nc2ccc(C(=O)N(c3ccccn3)C3CCC3)cc2)cc1` [Example 41, N-cyclobutyl-4-{2-[4-(ethanesulfonyl)phenyl]acetamido}-N-(pyridin-2-yl)benzamide], the IC50 is at most 1000 nM.

Take `CCS(=O)(=O)c1ccc(CC(=O)Nc2ccc(C(=O)N(c3ccc(C)cc3)C(C)(C)CO)cc2)cc1` [Example 42, 4-{2-[4-(ethanesulfonyl)phenyl]acetamido}-N-(1-hydroxy-2-methylpropan-2-yl)-N-(4-methylphenyl)benzamide]: the IC50 is at most 100 nM.

On to `CCN(C(=O)c1ccc(NC(=O)Cc2ccc(S(=O)(=O)CC)nc2)cc1F)c1ccccc1` [Example 43, 4-{2-[6-(ethanesulfonyl)pyridin-3-yl]acetamido}-N-ethyl-2-fluoro-N-phenylbenzamide], for which the IC50 was at most 1000 nM.

The next assay has as its system IL-17A production in anti-CD3/anti-CD28 stimulated peripheral blood mononuclear cells (PBMCs). Kind of assay: Peripheral blood mononuclear cell (PBMC) IL-17 assay. Particulars: Homo sapiens, 120 h, read-out:
Experimental: This assay is designed to measure the levels of IL-17A secreted from anti-CD3/anti-CD28 stimulated PBMCs with the aim of measuring RORγ mediated inhibition of IL-17A production.
The assay medium consists of 90% RPMI 1640 (Lonza), 10% heat inactivated fetal bovin serum (FBS, Lonza) and 100 U/mL penicillin/streptomycin solution.
Anti-CD3 antibody (BD Pharmingen) was diluted to 10 μg/ml in PBS (Lonza). 30 μL of 10 μg/ml anti-CD3 solution was added to the inner 60 wells, excluding any negative control wells, of a 96-well cell culture treated U-bottom plate (Greiner). Plates were incubated overnight (16-24 hours) at 37° C. and 5% CO2.
Peripheral blood mononuclear cells were separated from buffy coats (Sanquin) using Ficoll-Paque PREMIUM separation medium (GE Healthcare Life Sciences) according to manufacturer's protocol and re-suspended in assay medium at 37° C.
Test compounds were diluted, starting from a 10 mM dimethylsulfoxide (DMSO) stock solution, to serial dilutions in DMSO at 200× the final test concentration. Subsequently, these solutions were diluted in two dilution steps in assay medium to 10× the final test concentration. The DMSO concentration of the 10× test compound solution was 5%.
Anti-CD28 antibody (BD Pharmingen) was diluted to 20 μg/mL in PBS.
For compound screening, the anti-CD3 coated plates were washed three times with PBS, the wells were subsequently aspirated using vacuum. To each screening well 80 μL of the PBMC suspension, 10 μL of the anti-CD28 solution and 10 μL of the 1 Ox test compound solution was added, resulting in the final test concentration with 0.5% DMSO. All outer wells were filled with assay medium to prevent evaporation. Plates were incubated for 5 days at 37° C. and 5% CO2.
After incubation the plates were spun down at 1500 rpm for 4 minutes and the supernatant was collected. Subsequently, the IL-17A levels in the supernatants was determined using an IL-17 ELISA kit (human IL-17 DuoSet, R&D systems) according to manufacturer's protocol.
The half maximum inhibitory concentration (IC50) values for the test compounds were calculated from the IL-17A signal using GraphPad Prism software (GraphPad Software).
For `CCN(C(=O)c1ccc(NC(=O)Cc2ccc(S(=O)(=O)CC)cc2)cc1)c1nc(C)c(C)s1` [Example 13, N-(4-methyl-5-methyl-1,3-thiazol-2-yl)-4-{2-[4-(ethanesulfonyl)phenyl]acetamido}-N-ethylbenzamide], the IC50 is at most 100 nM.

Still in this assay, the particulars now being: Homo sapiens, 120 h, read-out: mean pIC50, inhibition of IL-17A secretion (ELISA), human PBMCs, anti-CD3/anti-CD28 stimulated, 5 days (converted).
Take `CCN(C(=O)c1ccc(NC(=O)Cc2ccc(S(=O)(=O)CC)cc2)cc1)c1cc(C)nn1C` [Example 2, N-(1,3-dimethyl-1H-pyrazol-5-yl)-4-{2-[4-(ethanesulfonyl)phenyl]acetamido}-N-ethylbenzamide]: the IC50 was at most 100 nM.

With `CCCN(C(=O)c1ccc(NC(=O)Cc2ccc(S(=O)(=O)CC)cc2)cc1)c1cc(C)on1` [Example 5, 4-{2-[4-(ethanesulfonyl)phenyl]acetamido}-N-(5-methyl-1,2-oxazol-3-yl)-N-propylbenzamide], the IC50 is at most 100 nM.

With `CCCN(C(=O)c1ccc(NC(=O)Cc2ccc(S(=O)(=O)CC)cc2)cc1)c1cc(C)nn1C` [Example 6, N-(1,3-dimethyl-1H-pyrazol-5-yl)-4-{2-[4-(ethanesulfonyl)phenyl]acetamido}-N-propylbenzamide], the IC50 was at most 100 nM.

On to `CCS(=O)(=O)c1ccc(CC(=O)Nc2ccc(C(=O)N(c3ccc(C)cc3)C(C)(C)C3CCCO3)cc2)cc1` (stereo not drawn) [Example 17, 4-{2-[4-(ethanesulfonyl)phenyl]acetamido}-N-(4-methylphenyl)-N-[2-(oxolan-2-yl)propan-2-yl]benzamide], for which the IC50 is at most 100 nM.

`CCS(=O)(=O)c1ccc(CC(=O)Nc2ccc(C(=O)N(c3ccccc3)C(C)(C)C3CCCO3)cc2)cc1` (stereo not drawn) [Example 18, 4-{2-[4-(ethanesulfonyl)phenyl]acetamido}-N-[2-(oxolan-2-yl)propan-2-yl]-N-phenylbenzamide]: the IC50 was at most 100 nM.

`CCS(=O)(=O)c1ccc(CC(=O)Nc2ccc(C(=O)N(c3ccccc3)C3CC(F)(F)C3)cc2)cc1` [Example 21, N-(3,3-difluorocyclobutyl)-4-{2-[4-(ethanesulfonyl)phenyl]acetamido}-N-phenylbenzamide]: the IC50 was at most 100 nM.
